The numbers were not newly measured in patent publication US20240083845A1 (priority 2020, published 2024), which cites them from elsewhere.

Data set [1] concerns ten further coronavirus strains. Particulars: read-out: Ki values against ten further coronavirus strains; cited from earlier work.
In a further data set the test system is live virus. Particulars: cited from earlier work.

As a reminder, the Ki is a dissociation constant, usually derived from enzyme kinetics or from competition with a known ligand. Regarding PF-00835231, the Ki in data set [1] was 0.03 to 4 nM. Moreover, in the data set on live virus, the “activity in cell-based live virus assays” value is roughly 1 µM.
